Test results: ChEMBL document CHEMBL1909046, “DrugMatrix in vitro pharmacology data”

How the values were obtained:
[1] = target: T1, C-C chemokine receptor type 4 (Homo sapiens, UniProt P51679); type: cell membranes, Chem-1, Membrane; settings: chem-1; also: in other assays of this panel Not Active means under 50% inhibition at 10 µM
T1 sequence (P51679 whole entry): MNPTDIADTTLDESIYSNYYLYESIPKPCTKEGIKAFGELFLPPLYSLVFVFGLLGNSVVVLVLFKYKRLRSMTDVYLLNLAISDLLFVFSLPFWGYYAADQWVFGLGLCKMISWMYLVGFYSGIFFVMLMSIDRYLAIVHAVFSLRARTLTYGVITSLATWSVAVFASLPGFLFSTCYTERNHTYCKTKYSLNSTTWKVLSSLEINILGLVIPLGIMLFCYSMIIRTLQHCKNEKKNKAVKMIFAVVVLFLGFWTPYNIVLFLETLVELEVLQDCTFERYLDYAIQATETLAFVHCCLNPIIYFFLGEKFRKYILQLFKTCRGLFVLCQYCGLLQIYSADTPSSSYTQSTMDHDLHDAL

Adenosine receptor A1 = target: T2, Adenosine receptor A1 (Homo sapiens, UniProt P30542); type: cell membranes, CHO, Membrane; settings: cho;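 also: radioligand binding assay at the adenosine A1 receptor, with DPCPX serving as the labelled ligand; in other assays of this panel Not Active means under 50% inhibition at 10 µM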
T2 sequence (P30542 whole entry): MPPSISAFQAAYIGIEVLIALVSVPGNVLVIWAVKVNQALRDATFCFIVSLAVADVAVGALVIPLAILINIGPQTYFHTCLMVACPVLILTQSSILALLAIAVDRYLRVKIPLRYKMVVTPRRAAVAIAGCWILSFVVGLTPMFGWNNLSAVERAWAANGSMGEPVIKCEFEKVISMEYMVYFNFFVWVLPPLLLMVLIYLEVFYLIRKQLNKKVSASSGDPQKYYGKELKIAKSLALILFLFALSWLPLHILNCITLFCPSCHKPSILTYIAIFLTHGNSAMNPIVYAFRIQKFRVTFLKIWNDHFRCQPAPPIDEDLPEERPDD

Cathepsin G = target: T3, Cathepsin G (Homo sapiens, UniProt P08311); assay: biochemical; type: tissue-based, Neutrophil; settings: neutrophil;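 also: inhibition of Cathepsin G enzyme activity, tested on an AMC-conjugated peptide substrate; in other assays of this panel Not Active means under 50% inhibition at 10 µM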
T3 sequence (P08311 whole entry): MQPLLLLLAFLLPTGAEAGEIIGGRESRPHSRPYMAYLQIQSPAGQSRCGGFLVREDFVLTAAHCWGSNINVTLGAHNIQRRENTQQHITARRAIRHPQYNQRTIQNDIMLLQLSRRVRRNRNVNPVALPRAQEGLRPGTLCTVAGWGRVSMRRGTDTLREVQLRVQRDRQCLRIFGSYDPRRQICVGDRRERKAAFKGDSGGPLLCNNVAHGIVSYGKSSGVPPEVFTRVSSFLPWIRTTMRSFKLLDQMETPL

Insulin receptor = Insulin receptor (Rattus norvegicus, UniProt P15127); type: cell membranes, Wistar, Liver, Membrane; also: in other assays of this panel Not Active means under 50% inhibition at 10 µM
Cytochrome P450 3A4 = Cytochrome P450 3A4 (Homo sapiens, UniProt P08684); settings: bti-tn-5b1-4; also: in other assays of this panel Not Active means under 50% inhibition at 10 µM
Estrogen receptor = target: T4, Estrogen receptor (Homo sapiens, UniProt P03372); settings: sf9; also: in other assays of this panel Not Active means under 50% inhibition at 10 µM
T4 sequence (P03372 whole entry): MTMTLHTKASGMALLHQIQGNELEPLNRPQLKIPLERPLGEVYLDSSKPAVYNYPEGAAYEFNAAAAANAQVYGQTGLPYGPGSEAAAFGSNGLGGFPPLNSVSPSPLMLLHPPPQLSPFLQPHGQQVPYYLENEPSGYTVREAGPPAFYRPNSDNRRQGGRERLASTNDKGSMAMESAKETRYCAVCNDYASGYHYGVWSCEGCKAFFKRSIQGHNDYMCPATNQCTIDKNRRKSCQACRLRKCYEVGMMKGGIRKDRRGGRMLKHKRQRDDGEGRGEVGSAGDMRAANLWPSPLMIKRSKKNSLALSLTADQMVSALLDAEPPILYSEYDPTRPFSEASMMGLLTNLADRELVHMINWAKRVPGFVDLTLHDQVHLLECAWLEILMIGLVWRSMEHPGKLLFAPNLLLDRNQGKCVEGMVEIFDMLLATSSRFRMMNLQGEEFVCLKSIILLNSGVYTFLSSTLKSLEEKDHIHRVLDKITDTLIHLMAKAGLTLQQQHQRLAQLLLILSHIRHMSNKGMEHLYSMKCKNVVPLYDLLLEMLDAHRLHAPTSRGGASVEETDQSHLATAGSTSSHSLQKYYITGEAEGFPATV

Mu-type opioid receptor = Mu-type opioid receptor (Homo sapiens, UniProt P35372); assay: DRUGMATRIX: Opiate mu (OP3, MOP) radioligand binding (ligand: [3H] Diprenorphine); type: cell membranes, CHO-K1, Membrane; settings: cho-k1; Not Active = under 50% inhibition at 10 µM
[2] = DRUGMATRIX: Calcium Channel Type L, Dihydropyridine radioligand binding (ligand: [3H] Nitrendipine); type: cell membranes, Rattus norvegicus, Wistar, Cerebral cortex, Membrane; settings: Not Active = under 50% inhibition at 10 µM

Sequence of Insulin receptor (P15127 27-759 limits assumed): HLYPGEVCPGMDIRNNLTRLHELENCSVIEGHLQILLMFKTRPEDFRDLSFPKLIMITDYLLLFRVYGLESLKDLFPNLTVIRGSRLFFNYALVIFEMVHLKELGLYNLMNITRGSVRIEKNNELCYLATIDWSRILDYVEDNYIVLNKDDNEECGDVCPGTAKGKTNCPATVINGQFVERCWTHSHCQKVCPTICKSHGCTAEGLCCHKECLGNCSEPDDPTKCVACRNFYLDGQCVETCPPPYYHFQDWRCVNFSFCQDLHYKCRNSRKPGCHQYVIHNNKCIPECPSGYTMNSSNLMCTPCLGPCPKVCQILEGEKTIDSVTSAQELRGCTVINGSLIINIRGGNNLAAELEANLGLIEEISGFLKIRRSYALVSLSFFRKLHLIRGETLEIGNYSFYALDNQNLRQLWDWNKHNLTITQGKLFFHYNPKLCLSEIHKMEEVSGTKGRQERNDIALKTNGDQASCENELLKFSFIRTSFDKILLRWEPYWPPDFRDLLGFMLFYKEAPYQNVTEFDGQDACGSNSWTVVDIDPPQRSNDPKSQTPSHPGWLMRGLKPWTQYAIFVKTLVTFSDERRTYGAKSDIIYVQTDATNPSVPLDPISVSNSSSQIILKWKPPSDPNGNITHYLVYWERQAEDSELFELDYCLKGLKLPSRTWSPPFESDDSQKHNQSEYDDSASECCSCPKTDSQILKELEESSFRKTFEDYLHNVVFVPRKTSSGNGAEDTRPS
Sequence of Insulin receptor (P15127 764-1383 limits assumed): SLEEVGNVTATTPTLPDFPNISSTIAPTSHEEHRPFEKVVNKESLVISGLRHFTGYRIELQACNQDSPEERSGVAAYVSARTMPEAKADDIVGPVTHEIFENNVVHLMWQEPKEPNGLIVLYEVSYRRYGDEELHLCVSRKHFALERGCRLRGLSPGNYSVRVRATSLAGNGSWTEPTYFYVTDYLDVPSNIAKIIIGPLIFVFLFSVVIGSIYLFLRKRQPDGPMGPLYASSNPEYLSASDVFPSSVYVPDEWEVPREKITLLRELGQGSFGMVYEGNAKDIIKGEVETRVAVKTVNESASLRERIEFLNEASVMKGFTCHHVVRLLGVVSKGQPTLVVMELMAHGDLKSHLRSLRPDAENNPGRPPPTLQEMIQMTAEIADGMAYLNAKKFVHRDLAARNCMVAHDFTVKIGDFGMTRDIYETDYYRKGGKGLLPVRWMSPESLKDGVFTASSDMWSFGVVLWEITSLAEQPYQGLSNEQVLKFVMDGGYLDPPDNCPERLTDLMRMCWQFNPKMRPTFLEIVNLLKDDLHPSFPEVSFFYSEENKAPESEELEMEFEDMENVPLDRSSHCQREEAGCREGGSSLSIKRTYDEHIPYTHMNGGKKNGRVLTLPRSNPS
Sequence of Mu-type opioid receptor (P35372 whole entry): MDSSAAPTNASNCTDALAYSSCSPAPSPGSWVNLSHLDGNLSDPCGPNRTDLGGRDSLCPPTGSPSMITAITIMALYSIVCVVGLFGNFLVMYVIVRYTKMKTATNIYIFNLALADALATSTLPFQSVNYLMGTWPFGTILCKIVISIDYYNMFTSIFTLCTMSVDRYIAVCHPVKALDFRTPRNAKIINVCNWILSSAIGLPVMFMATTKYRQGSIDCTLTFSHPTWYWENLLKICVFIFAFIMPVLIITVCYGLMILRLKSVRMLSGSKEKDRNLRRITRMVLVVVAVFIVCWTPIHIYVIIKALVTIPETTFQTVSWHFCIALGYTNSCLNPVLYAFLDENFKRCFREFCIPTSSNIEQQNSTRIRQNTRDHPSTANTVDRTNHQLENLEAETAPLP
Sequence of Cytochrome P450 3A4 (P08684 whole entry): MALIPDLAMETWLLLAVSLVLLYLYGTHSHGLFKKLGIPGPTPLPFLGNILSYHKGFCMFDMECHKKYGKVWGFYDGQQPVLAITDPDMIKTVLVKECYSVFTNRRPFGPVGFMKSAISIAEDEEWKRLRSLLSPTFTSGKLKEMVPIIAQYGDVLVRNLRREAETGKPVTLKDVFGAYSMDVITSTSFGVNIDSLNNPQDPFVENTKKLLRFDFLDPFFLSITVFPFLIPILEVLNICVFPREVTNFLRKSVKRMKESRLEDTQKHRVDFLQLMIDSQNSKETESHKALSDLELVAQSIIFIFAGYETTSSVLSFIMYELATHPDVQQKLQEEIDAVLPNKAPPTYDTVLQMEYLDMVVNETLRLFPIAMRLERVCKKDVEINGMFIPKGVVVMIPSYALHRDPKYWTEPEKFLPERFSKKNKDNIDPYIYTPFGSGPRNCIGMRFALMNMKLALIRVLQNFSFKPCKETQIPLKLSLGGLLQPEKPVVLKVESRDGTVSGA

CC12CCC(CC1=O)C2(C)C (stereo not given) [CAMPHOR]
Not Active: IC50 [1] | IC50 (Adenosine receptor A1) | IC50 (Cathepsin G) | IC50 (Insulin receptor) | IC50 (Cytochrome P450 3A4) | Ki (Cytochrome P450 3A4) | IC50 (Estrogen receptor) | IC50 (Mu-type opioid receptor) | IC50 [2] | Ki [2]

CC12CCC(CC1)C(C)(C)O2 [EUCALYPTOL]
Not Active: IC50 [1] | IC50 (Adenosine receptor A1) | IC50 (Cathepsin G) | IC50 (Insulin receptor) | IC50 (Cytochrome P450 3A4) | Ki (Cytochrome P450 3A4) | IC50 (Estrogen receptor) | IC50 (Mu-type opioid receptor) | IC50 [2] | Ki [2]

Clc1cc(Cl)c(OCC#CI)cc1Cl [HALOPROGIN]
Not Active: IC50 [1] | IC50 (Adenosine receptor A1) | IC50 (Cathepsin G) | IC50 (Insulin receptor) | IC50 (Cytochrome P450 3A4) | Ki (Cytochrome P450 3A4) | IC50 (Estrogen receptor) | IC50 (Mu-type opioid receptor) | IC50 [2] | Ki [2]

COc1cc(NC(C)CCCN)c2ncccc2c1 (stereo not given) [PRIMAQUINE]
Not Active: IC50 [1] | IC50 (Adenosine receptor A1) | IC50 (Cathepsin G) | IC50 (Insulin receptor) | IC50 (Cytochrome P450 3A4) | Ki (Cytochrome P450 3A4) | IC50 (Estrogen receptor) | IC50 (Mu-type opioid receptor) | IC50 [2] | Ki [2]

Cc1cc(C(C)(C)C)c(O)c(C)c1CC1=NCCN1 [OXYMETAZOLINE]
Not Active: IC50 [1] | IC50 (Adenosine receptor A1) | IC50 (Cathepsin G) | IC50 (Insulin receptor) | IC50 (Cytochrome P450 3A4) | Ki (Cytochrome P450 3A4) | IC50 (Estrogen receptor) | IC50 (Mu-type opioid receptor) | IC50 [2] | Ki [2]

O=c1[nH]cnc2c1ncn2[C@H]1CC[C@@H](CO)O1 [DIDANOSINE]
Not Active: IC50 [1] | IC50 (Adenosine receptor A1) | IC50 (Cathepsin G) | IC50 (Insulin receptor) | IC50 (Cytochrome P450 3A4) | Ki (Cytochrome P450 3A4) | IC50 (Estrogen receptor) | IC50 (Mu-type opioid receptor) | IC50 [2] | Ki [2]

CC(=O)[C@]1(O)Cc2c(O)c3c(c(O)c2[C@@H](O[C@H]2C[C@H](N)[C@H](O)[C@H](C)O2)C1)C(=O)c1ccccc1C3=O [IDARUBICIN]
Not Active: IC50 [1] | IC50 (Adenosine receptor A1) | IC50 (Cathepsin G) | IC50 (Insulin receptor) | IC50 (Cytochrome P450 3A4) | Ki (Cytochrome P450 3A4) | IC50 (Estrogen receptor) | IC50 (Mu-type opioid receptor) | IC50 [2] | Ki [2]

C=C(Cl)Cl [1,1-DICHLOROETHENE]
Not Active: IC50 [1] | IC50 (Adenosine receptor A1) | IC50 (Cathepsin G) | IC50 (Insulin receptor) | IC50 (Cytochrome P450 3A4) | Ki (Cytochrome P450 3A4) | IC50 (Estrogen receptor) | IC50 [2] | Ki [2]

O=C(O)CCc1nc(-c2ccccc2)c(-c2ccccc2)o1 [OXAPROZIN]
Not Active: IC50 [1] | IC50 (Adenosine receptor A1) | IC50 (Cathepsin G) | IC50 (Insulin receptor) | IC50 (Cytochrome P450 3A4) | Ki (Cytochrome P450 3A4) | IC50 (Estrogen receptor) | IC50 (Mu-type opioid receptor) | IC50 [2] | Ki [2]

COC(=O)C[C@](O)(CCC(C)(C)O)C(=O)O[C@@H]1C(OC)=C[C@]23CCCN2CCc2cc4c(cc2[C@H]13)OCO4 [HARRINGTONINE]
Not Active: IC50 [1] | IC50 (Adenosine receptor A1) | IC50 (Cathepsin G) | IC50 (Insulin receptor) | IC50 (Cytochrome P450 3A4) | Ki (Cytochrome P450 3A4) | IC50 (Estrogen receptor) | IC50 (Mu-type opioid receptor) | IC50 [2] | Ki [2]

CHROMIC CHLORIDE
Not Active: IC50 [1] | Ki [1] | IC50 (Adenosine receptor A1) | Ki (Adenosine receptor A1) | IC50 (Cathepsin G) | Ki (Cathepsin G) | IC50 (Insulin receptor) | Ki (Insulin receptor) | IC50 (Cytochrome P450 3A4) | Ki (Cytochrome P450 3A4) | IC50 (Estrogen receptor) | Ki (Estrogen receptor) | IC50 [2] | Ki [2]

O=C1CN(/N=C/c2ccc([N+](=O)[O-])o2)C(=O)N1 [NITROFURANTOIN]
Not Active: IC50 [1] | IC50 (Adenosine receptor A1) | IC50 (Cathepsin G) | IC50 (Insulin receptor) | IC50 (Cytochrome P450 3A4) | Ki (Cytochrome P450 3A4) | IC50 (Estrogen receptor) | IC50 (Mu-type opioid receptor) | IC50 [2] | Ki [2]

CCN1C[C@]2(COC)[C@H](O)C[C@H](OC)[C@@]34[C@@H]5C[C@@]6(O)[C@H](OC(=O)c7ccccc7)[C@@H]5[C@@](OC(C)=O)([C@@H]([C@H](OC)[C@H]23)[C@@H]14)[C@@H](O)[C@@H]6OC [ACONITINE]
Not Active: IC50 [1] | IC50 (Adenosine receptor A1) | IC50 (Cathepsin G) | IC50 (Insulin receptor) | IC50 (Cytochrome P450 3A4) | Ki (Cytochrome P450 3A4) | IC50 (Estrogen receptor) | IC50 [2] | Ki [2]

POVIDONE
Not Active: IC50 [1] | Ki [1] | IC50 (Adenosine receptor A1) | Ki (Adenosine receptor A1) | IC50 (Cathepsin G) | Ki (Cathepsin G) | IC50 (Insulin receptor) | Ki (Insulin receptor) | IC50 (Cytochrome P450 3A4) | Ki (Cytochrome P450 3A4) | IC50 (Estrogen receptor) | Ki (Estrogen receptor) | IC50 [2] | Ki [2]

NS(=O)(=O)c1cc(C(=O)O)c(NCc2ccco2)cc1Cl [FUROSEMIDE]
Not Active: IC50 [1] | IC50 (Adenosine receptor A1) | IC50 (Cathepsin G) | IC50 (Insulin receptor) | IC50 (Estrogen receptor) | IC50 (Mu-type opioid receptor) | IC50 [2] | Ki [2]

C=CCN1CC[C@]23c4c5ccc(O)c4O[C@H]2/C(=N/N=C2\CC[C@@]4(O)[C@H]6Cc7ccc(O)c8c7[C@@]4(CCN6CC=C)[C@H]2O8)CC[C@@]3(O)[C@H]1C5 [NALOXONAZINE]
Not Active: IC50 [1] | IC50 (Adenosine receptor A1) | IC50 (Cathepsin G) | IC50 (Insulin receptor) | IC50 (Cytochrome P450 3A4) | Ki (Cytochrome P450 3A4) | IC50 (Estrogen receptor) | IC50 [2] | Ki [2]

ClC1=C(Cl)[C@]2(Cl)[C@@H]3[C@@H]4C[C@@H]([C@H]5O[C@@H]45)[C@@H]3[C@@]1(Cl)C2(Cl)Cl [DIELDRIN]
Not Active: IC50 [1] | IC50 (Adenosine receptor A1) | IC50 (Cathepsin G) | IC50 (Insulin receptor) | IC50 (Cytochrome P450 3A4) | Ki (Cytochrome P450 3A4) | IC50 (Estrogen receptor) | IC50 [2] | Ki [2]

COPPER(II) OXIDE
Not Active: IC50 [1] | Ki [1] | IC50 (Adenosine receptor A1) | Ki (Adenosine receptor A1) | IC50 (Cathepsin G) | Ki (Cathepsin G) | IC50 (Insulin receptor) | Ki (Insulin receptor) | IC50 (Cytochrome P450 3A4) | Ki (Cytochrome P450 3A4) | IC50 (Estrogen receptor) | Ki (Estrogen receptor) | IC50 [2] | Ki [2]

CC(C)NCC(O)COc1ccc(CC(N)=O)cc1 (stereo not given) [ATENOLOL]
Not Active: IC50 [1] | IC50 (Adenosine receptor A1) | IC50 (Cathepsin G) | IC50 (Insulin receptor) | IC50 (Estrogen receptor) | IC50 (Mu-type opioid receptor) | IC50 [2] | Ki [2]

O=C(O)CNCP(=O)(O)O [GLYPHOSATE]
Not Active: IC50 [1] | IC50 (Adenosine receptor A1) | IC50 (Cathepsin G) | IC50 (Insulin receptor) | IC50 (Estrogen receptor) | IC50 [2] | Ki [2]

CARBOXYMETHYLCELLULOSE
Not Active: IC50 [1] | Ki [1] | IC50 (Adenosine receptor A1) | Ki (Adenosine receptor A1) | IC50 (Cathepsin G) | Ki (Cathepsin G) | IC50 (Insulin receptor) | Ki (Insulin receptor) | IC50 (Cytochrome P450 3A4) | Ki (Cytochrome P450 3A4) | IC50 (Estrogen receptor) | Ki (Estrogen receptor) | IC50 [2] | Ki [2]
